# Laboratory results as given in PubChem BioAssay AID330 (DTP/NCI, 2004).
# Values joined by “and” are separate entries in the source; they are usually repeats but may differ in a detail not shown here. Equal entries are not always repeated. Inconclusive results and toxic doses are left out.
# Tested on: P388 leukemia ip, CD2F1 mice, survival T/C
# Assay: NCI In Vivo Anticancer Drug Screen. Data for tumor model P388 Leukemia (intraperitoneal) in CD2F1 (CDF1) mice
# Conditions: endpoint: median survival time, higher = longer survival
# How it was run: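 Mice carrying the transplanted tumor received test compound or vehicle. Survival was recorded in each group, and the value is the treated-group measurement divided by that of the vehicle-treated control group.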
# [1] = dose: 50.0 mg/kg/injection, schedule: Q01DX005 (ip), vehicle: Klucel (hydroxypropylcellulose) (HPC)
# [2] = dose: 100.0 mg/kg/injection, schedule: Q01DX005 (ip), vehicle: Klucel (hydroxypropylcellulose) (HPC)
# [3] = dose: 200.0 mg/kg/injection, schedule: Q01DX005 (ip), vehicle: Klucel (hydroxypropylcellulose) (HPC)
# [4] = dose: 50.0 mg/kg/injection, schedule: Q01DX009 (ip), vehicle: saline
# [5] = dose: 100.0 mg/kg/injection, schedule: Q01DX009 (ip), vehicle: saline
# [6] = dose: 200.0 mg/kg/injection, schedule: Q01DX009 (ip), vehicle: saline
# [7] = dose: 100.0 mg/kg/injection, schedule: Q04DX003 (ip), vehicle: saline with Tween-80
# [8] = dose: 200.0 mg/kg/injection, schedule: Q04DX003 (ip), vehicle: saline with Tween-80
# [9] = dose: 50.0 mg/kg/injection, schedule: Q01DX009 (ip), vehicle: saline with Tween-80
# [10] = dose: 100.0 mg/kg/injection, schedule: Q01DX009 (ip), vehicle: saline with Tween-80
smiles,measurement,setting,value
Cc1ccc(C(=O)C(C#N)=Nc2ccc(N(C)C)cc2)cc1,T/C,"dose: 12.5 mg/kg/injection, schedule: Q01DX005 (ip), vehicle: Klucel (hydroxypropylcellulose) (HPC)",92 % of control
same,T/C,[1],87 % of control and 91 % of control
same,T/C,[2],92 % of control
same,T/C,[3],99 % of control
O=C(CCC(=O)Nc1ccc(Cl)cc1Cl)CC(=O)c1ccco1,T/C,"dose: 60.0 mg/kg/injection, schedule: Q01DX005 (ip), vehicle: saline with Tween-80",102 % of control
same,T/C,"dose: 120.0 mg/kg/injection, schedule: Q01DX005 (ip), vehicle: saline with Tween-80",105 % of control
same,T/C,"dose: 240.0 mg/kg/injection, schedule: Q01DX005 (ip), vehicle: saline with Tween-80",102 % of control
O=c1cncc[nH]1,T/C,"dose: 12.5 mg/kg/injection, schedule: Q01DX009 (ip), vehicle: saline",105 % of control
same,T/C,"dose: 25.0 mg/kg/injection, schedule: Q01DX009 (ip), vehicle: saline",108 % of control
same,T/C,[4],108 % of control
same,T/C,[5],109 % of control
same,T/C,[6],96 % of control
Cc1ccc2ncccc2c1,T/C,"dose: 50.0 mg/kg/injection, schedule: Q04DX003 (ip), vehicle: saline with Tween-80",102 % of control
same,T/C,[7],101 % of control
same,T/C,[8],98 % of control
O=[N+]([O-])c1ccc2c(c1)C(N1CCOCC1)c1ccccc1-2 (stereo not drawn),T/C,[1],98 % of control
same,T/C,[2],98 % of control
same,T/C,[3],100 % of control
COc1cccc(C=O)c1OC(=O)Oc1ccccc1,T/C,"dose: 3.13 mg/kg/injection, schedule: Q01DX009 (ip), vehicle: distilled water + Tween-80",111 % of control and 95 % of control
same,T/C,"dose: 6.25 mg/kg/injection, schedule: Q01DX009 (ip), vehicle: distilled water + Tween-80",111 % of control
same,T/C,"dose: 12.5 mg/kg/injection, schedule: Q01DX009 (ip), vehicle: distilled water + Tween-80",100 % of control and 104 % of control
same,T/C,"dose: 25.0 mg/kg/injection, schedule: Q01DX009 (ip), vehicle: distilled water + Tween-80",109 % of control and 113 % of control and 114 % of control
same,T/C,"dose: 50.0 mg/kg/injection, schedule: Q01DX009 (ip), vehicle: distilled water + Tween-80",100 % of control and 103 % of control
O=S(=O)(/N=C/c1ccccc1)c1ccc(Cl)cc1,T/C,"dose: 12.5 mg/kg/injection, schedule: Q01DX009 (ip), vehicle: saline with Tween-80",101 % of control
same,T/C,"dose: 25.0 mg/kg/injection, schedule: Q01DX009 (ip), vehicle: saline with Tween-80",101 % of control
same,T/C,[9],95 % of control
same,T/C,[10],96 % of control
COc1c(C)n(C2OC(CO)C(O)C2O)ccc1=O (stereo not drawn),T/C,[4],104 % of control
same,T/C,[5],100 % of control
same,T/C,[6],103 % of control
same,T/C,"dose: 400.0 mg/kg/injection, schedule: Q01DX009 (ip), vehicle: saline",98 % of control
NNc1nncc2c1[nH]c1ccccc12,T/C,"dose: 1.56 mg/kg/injection, schedule: Q01DX001 (ip), vehicle: saline with Tween-80",102 % of control
same,T/C,"dose: 3.12 mg/kg/injection, schedule: Q01DX001 (ip), vehicle: saline with Tween-80",102 % of control
same,T/C,"dose: 6.25 mg/kg/injection, schedule: Q01DX001 (ip), vehicle: saline with Tween-80",105 % of control
same,T/C,"dose: 12.5 mg/kg/injection, schedule: Q01DX001 (ip), vehicle: saline with Tween-80",103 % of control
COC(=O)c1[nH]cc2ccccc12,T/C,[7],98 % of control
same,T/C,[8],104 % of control
same,T/C,"dose: 400.0 mg/kg/injection, schedule: Q04DX003 (ip), vehicle: saline with Tween-80",102 % of control
C#CCOC(=O)C1CCCCC1,T/C,[9],110 % of control
same,T/C,[10],110 % of control
same,T/C,"dose: 200.0 mg/kg/injection, schedule: Q01DX009 (ip), vehicle: saline with Tween-80",112 % of control
CCCCNC(C)[C@]1(O)Cc2c(O)c3c(c(O)c2[C@@H](OC2CC(N)C(O)C(C)O2)C1)C(=O)c1c(OC)cccc1C3=O (stereo partly drawn),T/C,"dose: 1.25 mg/kg/injection, schedule: Q01DX009 (ip), vehicle: water",154 % of control
same,T/C,"dose: 2.5 mg/kg/injection, schedule: Q01DX009 (ip), vehicle: water",152 % of control and 170 % of control
same,T/C,"dose: 5.0 mg/kg/injection, schedule: Q01DX009 (ip), vehicle: water",176 % of control and 190 % of control
same,T/C,"dose: 10.0 mg/kg/injection, schedule: Q01DX009 (ip), vehicle: water",99 % of control
O=C1c2ccccc2-c2cc(Br)c(N=Cc3c[nH]c4ccccc34)cc21,T/C,"dose: 50.0 mg/kg/injection, schedule: Q01DX005 (ip), vehicle: saline with Tween-80",105 % of control
same,T/C,"dose: 100.0 mg/kg/injection, schedule: Q01DX005 (ip), vehicle: saline with Tween-80",95 % of control
same,T/C,"dose: 200.0 mg/kg/injection, schedule: Q01DX005 (ip), vehicle: saline with Tween-80",89 % of control
